Reference: the kinase profiling compilation of Christmann-Franck et al. (2016)

Key:
Assay in all cases: KINOMEscan competition binding
Conditions in all cases: compound 10.0 µM
NEK6 (human) = NEK6 (human) (UniProt Q9HC98)
FRK (human) = FRK (human) (UniProt P42685)
PLK1 (human) = PLK1 (human) (UniProt P53350)
EPHA2 (human) = EPHA2 (human) (UniProt P29317)
AAK1 (human) = AAK1 (human) (UniProt Q2M2I8)
STK32C (human) = STK32C (human) (UniProt Q86UX6)
NIM1 (human) = NIM1 (human) (UniProt Q8IY84)
PIP5K1A (human) = PIP5K1A (human) (UniProt Q99755)
PTK2 (human) = PTK2 (human) (UniProt Q05397)
TNNI3K (human) = TNNI3K (human) (UniProt Q59H18)
TNNI3K (human), sequence (Q59H18 whole entry, looked up): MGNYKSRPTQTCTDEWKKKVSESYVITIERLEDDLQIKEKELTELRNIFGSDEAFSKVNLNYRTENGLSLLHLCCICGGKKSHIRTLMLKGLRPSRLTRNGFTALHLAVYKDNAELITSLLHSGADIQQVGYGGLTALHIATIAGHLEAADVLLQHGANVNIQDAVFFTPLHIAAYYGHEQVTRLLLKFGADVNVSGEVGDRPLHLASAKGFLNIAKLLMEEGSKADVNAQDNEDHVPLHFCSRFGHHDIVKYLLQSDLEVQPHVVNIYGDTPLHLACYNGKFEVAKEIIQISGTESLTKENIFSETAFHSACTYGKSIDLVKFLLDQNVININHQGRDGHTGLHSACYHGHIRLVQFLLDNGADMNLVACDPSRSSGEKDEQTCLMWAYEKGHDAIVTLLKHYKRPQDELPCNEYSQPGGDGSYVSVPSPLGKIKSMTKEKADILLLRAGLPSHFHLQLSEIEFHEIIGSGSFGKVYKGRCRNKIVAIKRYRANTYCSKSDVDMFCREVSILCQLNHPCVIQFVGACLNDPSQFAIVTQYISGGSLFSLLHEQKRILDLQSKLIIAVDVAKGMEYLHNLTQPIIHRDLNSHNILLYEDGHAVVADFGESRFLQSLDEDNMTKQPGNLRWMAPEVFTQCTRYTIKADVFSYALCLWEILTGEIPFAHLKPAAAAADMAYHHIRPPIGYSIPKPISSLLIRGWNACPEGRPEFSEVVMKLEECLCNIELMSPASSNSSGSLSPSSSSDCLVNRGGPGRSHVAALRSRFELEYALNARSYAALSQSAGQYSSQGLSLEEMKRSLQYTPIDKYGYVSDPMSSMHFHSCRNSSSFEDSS

EPHA7 (human) = EPHA7 (human) (UniProt Q15375)
FYN (human) = FYN (human) (UniProt P06241)
TNK2 (human) = TNK2 (human) (UniProt Q07912)
PIK3CA (human) = PIK3CA (human) (UniProt P42336)
ABL2 (human) = ABL2 (human) (UniProt P42684)
SIK3 (human) = SIK3 (human) (UniProt Q9Y2K2)
TYRO3 (human) = TYRO3 (human) (UniProt Q06418)
PRKG2 (human) = PRKG2 (human) (UniProt Q13237)
MYLK3 (human) = MYLK3 (human) (UniProt Q32MK0)
MYLK3 (human), sequence (Q32MK0 whole entry, looked up): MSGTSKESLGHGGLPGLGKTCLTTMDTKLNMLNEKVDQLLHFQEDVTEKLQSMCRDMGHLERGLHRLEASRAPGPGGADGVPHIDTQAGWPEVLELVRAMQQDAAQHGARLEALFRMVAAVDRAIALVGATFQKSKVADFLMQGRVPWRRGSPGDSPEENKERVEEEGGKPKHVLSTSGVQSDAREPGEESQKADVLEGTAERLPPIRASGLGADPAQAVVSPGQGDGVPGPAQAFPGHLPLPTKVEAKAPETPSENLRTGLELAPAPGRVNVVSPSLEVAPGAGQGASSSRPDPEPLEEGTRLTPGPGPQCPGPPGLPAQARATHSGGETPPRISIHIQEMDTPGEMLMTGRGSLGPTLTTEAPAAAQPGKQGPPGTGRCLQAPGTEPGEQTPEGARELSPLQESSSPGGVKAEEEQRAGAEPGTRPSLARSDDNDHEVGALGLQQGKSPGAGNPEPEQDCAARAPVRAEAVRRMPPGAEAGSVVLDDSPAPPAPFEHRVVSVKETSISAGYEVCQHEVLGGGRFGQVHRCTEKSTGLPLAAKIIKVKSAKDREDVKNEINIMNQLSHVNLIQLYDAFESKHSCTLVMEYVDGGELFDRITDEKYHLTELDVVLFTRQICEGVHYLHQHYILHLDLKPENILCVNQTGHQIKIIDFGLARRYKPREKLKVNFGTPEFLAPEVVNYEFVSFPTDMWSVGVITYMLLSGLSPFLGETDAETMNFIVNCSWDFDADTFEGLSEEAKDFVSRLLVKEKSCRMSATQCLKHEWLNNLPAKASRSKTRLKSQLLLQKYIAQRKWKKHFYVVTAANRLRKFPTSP

STK17A (human) = STK17A (human) (UniProt Q9UEE5)
STK17A (human), sequence (Q9UEE5 whole entry, looked up): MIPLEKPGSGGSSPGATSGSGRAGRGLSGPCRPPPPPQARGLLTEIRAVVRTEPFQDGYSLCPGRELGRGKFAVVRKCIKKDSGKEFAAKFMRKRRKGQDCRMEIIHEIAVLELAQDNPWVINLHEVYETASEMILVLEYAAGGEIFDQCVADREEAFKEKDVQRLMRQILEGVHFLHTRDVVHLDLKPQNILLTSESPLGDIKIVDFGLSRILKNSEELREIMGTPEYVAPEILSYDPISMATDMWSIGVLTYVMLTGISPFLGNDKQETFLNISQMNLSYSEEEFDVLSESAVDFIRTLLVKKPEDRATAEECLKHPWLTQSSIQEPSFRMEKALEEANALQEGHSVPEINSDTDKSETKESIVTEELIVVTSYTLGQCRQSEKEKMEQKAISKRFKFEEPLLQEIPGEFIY

AKT3 (human) = AKT3 (human) (UniProt Q9Y243)
BTK (human) = BTK (human) (UniProt Q06187)
BTK (human), sequence (Q06187 whole entry, looked up): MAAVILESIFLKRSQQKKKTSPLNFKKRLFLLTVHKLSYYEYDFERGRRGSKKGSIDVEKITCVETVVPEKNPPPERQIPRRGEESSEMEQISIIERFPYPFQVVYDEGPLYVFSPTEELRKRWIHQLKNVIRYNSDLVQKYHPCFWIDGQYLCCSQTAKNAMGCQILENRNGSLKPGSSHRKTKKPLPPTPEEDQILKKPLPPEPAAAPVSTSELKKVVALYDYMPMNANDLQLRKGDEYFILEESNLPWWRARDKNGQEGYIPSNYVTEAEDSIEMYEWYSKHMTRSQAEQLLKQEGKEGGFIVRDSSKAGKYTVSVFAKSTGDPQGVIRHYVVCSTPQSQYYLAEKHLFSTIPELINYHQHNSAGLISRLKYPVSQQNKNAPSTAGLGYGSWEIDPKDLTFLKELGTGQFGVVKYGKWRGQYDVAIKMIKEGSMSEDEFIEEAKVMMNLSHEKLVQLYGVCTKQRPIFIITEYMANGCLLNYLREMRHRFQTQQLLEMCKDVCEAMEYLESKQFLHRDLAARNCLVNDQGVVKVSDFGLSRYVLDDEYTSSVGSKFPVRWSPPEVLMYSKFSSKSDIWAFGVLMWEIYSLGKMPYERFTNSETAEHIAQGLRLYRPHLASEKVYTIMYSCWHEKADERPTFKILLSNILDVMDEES

STK11 (human) = STK11 (human) (UniProt Q15831)
STK11 (human), sequence (Q15831 whole entry, looked up): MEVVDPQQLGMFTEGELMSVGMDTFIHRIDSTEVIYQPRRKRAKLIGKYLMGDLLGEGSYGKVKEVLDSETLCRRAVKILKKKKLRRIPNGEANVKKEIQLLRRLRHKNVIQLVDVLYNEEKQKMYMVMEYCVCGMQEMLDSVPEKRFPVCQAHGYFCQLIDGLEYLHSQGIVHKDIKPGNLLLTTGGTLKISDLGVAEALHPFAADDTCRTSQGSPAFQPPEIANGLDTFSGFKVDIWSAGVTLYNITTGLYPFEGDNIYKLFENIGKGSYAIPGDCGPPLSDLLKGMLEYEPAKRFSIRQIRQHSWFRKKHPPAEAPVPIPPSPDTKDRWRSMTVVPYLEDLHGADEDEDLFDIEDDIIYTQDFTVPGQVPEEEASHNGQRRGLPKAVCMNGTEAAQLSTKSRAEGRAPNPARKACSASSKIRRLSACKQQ

MAP3K4 (human) = MAP3K4 (human) (UniProt Q9Y6R4)
PRKX (human) = PRKX (human) (UniProt P51817)
[1] = system: ABL1 (human), P00519 [Y253F]
CAMK2B (human) = CAMK2B (human) (UniProt Q13554)
MAP3K7 (human) = MAP3K7 (human) (UniProt O43318)
RPS6KB1 (human) = RPS6KB1 (human) (UniProt P23443)
STK16 (human) = STK16 (human) (UniProt O75716)
SGK110 (human) = SGK110 (human) (UniProt P0C264)
SGK110 (human), sequence (P0C264 whole entry, looked up): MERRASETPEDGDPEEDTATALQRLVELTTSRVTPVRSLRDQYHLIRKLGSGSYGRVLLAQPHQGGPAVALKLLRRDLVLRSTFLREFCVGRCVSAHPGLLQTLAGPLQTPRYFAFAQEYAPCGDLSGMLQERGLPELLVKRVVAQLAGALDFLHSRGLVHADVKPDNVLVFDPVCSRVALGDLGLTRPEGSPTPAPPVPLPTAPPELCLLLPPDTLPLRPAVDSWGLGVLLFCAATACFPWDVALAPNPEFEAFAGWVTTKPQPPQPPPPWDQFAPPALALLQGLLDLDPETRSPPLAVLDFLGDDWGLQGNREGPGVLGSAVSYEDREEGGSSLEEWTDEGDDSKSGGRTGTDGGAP

ROS1 (human) = ROS1 (human) (UniProt P08922)
RIOK3 (human) = RIOK3 (human) (UniProt O14730)
MYO3B (human) = MYO3B (human) (UniProt Q8WXR4)
MAPK4 (human) = MAPK4 (human) (UniProt P31152)
MAPK4 (human), sequence (P31152 whole entry, looked up): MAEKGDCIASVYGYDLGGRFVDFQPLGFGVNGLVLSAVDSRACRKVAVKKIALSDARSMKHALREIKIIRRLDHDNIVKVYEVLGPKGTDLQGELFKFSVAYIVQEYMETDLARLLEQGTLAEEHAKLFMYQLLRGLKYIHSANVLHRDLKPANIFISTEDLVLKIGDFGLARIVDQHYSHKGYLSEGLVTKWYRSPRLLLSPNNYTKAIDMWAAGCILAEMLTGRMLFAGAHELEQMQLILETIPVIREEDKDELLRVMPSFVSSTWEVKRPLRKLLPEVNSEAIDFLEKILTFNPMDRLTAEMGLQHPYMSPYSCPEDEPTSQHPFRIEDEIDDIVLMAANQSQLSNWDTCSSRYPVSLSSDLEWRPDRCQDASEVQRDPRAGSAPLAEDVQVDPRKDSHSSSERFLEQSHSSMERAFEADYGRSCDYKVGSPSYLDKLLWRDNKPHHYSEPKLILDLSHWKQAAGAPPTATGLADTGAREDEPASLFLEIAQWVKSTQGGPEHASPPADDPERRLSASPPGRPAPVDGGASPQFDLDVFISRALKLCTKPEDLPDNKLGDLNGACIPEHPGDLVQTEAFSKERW

NEK4 (human) = NEK4 (human) (UniProt P51957)
PDGFRB (human) = PDGFRB (human) (UniProt P09619)
PKMYT1 (human) = PKMYT1 (human) (UniProt Q99640)
NEK5 (human) = NEK5 (human) (UniProt Q6P3R8)
MAPK7 (human) = MAPK7 (human) (UniProt Q13164)
MAPK7 (human), sequence (Q13164 whole entry, looked up): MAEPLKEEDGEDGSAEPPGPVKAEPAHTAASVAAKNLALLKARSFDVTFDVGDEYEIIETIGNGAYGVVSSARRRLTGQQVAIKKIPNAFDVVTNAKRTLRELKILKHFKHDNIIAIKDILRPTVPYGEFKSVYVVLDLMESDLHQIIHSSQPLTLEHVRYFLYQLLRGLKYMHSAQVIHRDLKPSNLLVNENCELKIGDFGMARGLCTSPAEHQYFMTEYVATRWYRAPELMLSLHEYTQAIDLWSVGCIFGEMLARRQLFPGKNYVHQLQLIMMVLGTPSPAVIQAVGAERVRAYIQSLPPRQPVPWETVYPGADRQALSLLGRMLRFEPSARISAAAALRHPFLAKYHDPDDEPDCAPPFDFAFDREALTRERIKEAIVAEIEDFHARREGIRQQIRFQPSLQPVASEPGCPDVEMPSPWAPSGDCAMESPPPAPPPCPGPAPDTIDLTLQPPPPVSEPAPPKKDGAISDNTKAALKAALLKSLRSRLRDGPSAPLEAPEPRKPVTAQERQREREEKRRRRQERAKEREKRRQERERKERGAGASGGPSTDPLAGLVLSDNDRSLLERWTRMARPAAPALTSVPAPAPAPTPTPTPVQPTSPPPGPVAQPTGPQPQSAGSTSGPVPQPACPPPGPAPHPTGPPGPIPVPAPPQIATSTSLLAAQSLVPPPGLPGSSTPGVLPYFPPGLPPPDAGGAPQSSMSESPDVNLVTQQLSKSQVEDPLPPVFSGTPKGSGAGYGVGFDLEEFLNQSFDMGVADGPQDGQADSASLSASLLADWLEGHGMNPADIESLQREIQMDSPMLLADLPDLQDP

FES (human) = FES (human) (UniProt P07332)

COc1ccc(N(C(=O)Oc2c(C)cccc2C)c2ccnc(Nc3ccc(N4CCN(C)CC4)cc3)n2)c(OC)c1
kinase still bound, per cent of control (NEK6 (human)): 96% | kinase still bound, per cent of control (FRK (human)): 0% | kinase still bound, per cent of control (PLK1 (human)): 100% | kinase still bound, per cent of control (EPHA2 (human)): 0% | kinase still bound, per cent of control (AAK1 (human)): 13% | kinase still bound, per cent of control (STK32C (human)): 19% | kinase still bound, per cent of control (NIM1 (human)): 100% | kinase still bound, per cent of control (PIP5K1A (human)): 0.45% | kinase still bound, per cent of control (PTK2 (human)): 32% | kinase still bound, per cent of control (TNNI3K (human)): 0% | kinase still bound, per cent of control (EPHA7 (human)): 26% | kinase still bound, per cent of control (FYN (human)): 0% | kinase still bound, per cent of control (TNK2 (human)): 0% | kinase still bound, per cent of control (PIK3CA (human)): 100% | kinase still bound, per cent of control (ABL2 (human)): 0.1% | kinase still bound, per cent of control (SIK3 (human)): 22% | kinase still bound, per cent of control (TYRO3 (human)): 18% | kinase still bound, per cent of control (PRKG2 (human)): 92% | kinase still bound, per cent of control (MYLK3 (human)): 100% | kinase still bound, per cent of control (STK17A (human)): 100% | kinase still bound, per cent of control (AKT3 (human)): 100% | kinase still bound, per cent of control (BTK (human)): 1.3% | kinase still bound, per cent of control (STK11 (human)): 60% | kinase still bound, per cent of control (MAP3K4 (human)): 23% | kinase still bound, per cent of control (PRKX (human)): 41% | kinase still bound, per cent of control [1]: 0.1% | kinase still bound, per cent of control (CAMK2B (human)): 98% | kinase still bound, per cent of control (MAP3K7 (human)): 57% | kinase still bound, per cent of control (RPS6KB1 (human)): 72% | kinase still bound, per cent of control (STK16 (human)): 15% | kinase still bound, per cent of control (SGK110 (human)): 44% | kinase still bound, per cent of control (ROS1 (human)): 0.8% | kinase still bound, per cent of control (RIOK3 (human)): 5.1% | kinase still bound, per cent of control (MYO3B (human)): 18% | kinase still bound, per cent of control (MAPK4 (human)): 100% | kinase still bound, per cent of control (NEK4 (human)): 74% | kinase still bound, per cent of control (PDGFRB (human)): 0% | kinase still bound, per cent of control (PKMYT1 (human)): 100% | kinase still bound, per cent of control (NEK5 (human)): 85% | kinase still bound, per cent of control (MAPK7 (human)): 39% | kinase still bound, per cent of control (FES (human)): 0.35%

COc1cc(C(=O)N2CCC(N3CCN(C)CC3)CC2)ccc1Nc1ncc2c(n1)N(C)c1ccccc1C(=O)N2C
kinase still bound, per cent of control (NEK6 (human)): 76% | kinase still bound, per cent of control (FRK (human)): 34% | kinase still bound, per cent of control (PLK1 (human)): 0.7% | kinase still bound, per cent of control (EPHA2 (human)): 92% | kinase still bound, per cent of control (AAK1 (human)): 84% | kinase still bound, per cent of control (STK32C (human)): 100% | kinase still bound, per cent of control (NIM1 (human)): 100% | kinase still bound, per cent of control (PIP5K1A (human)): 90% | kinase still bound, per cent of control (PTK2 (human)): 34% | kinase still bound, per cent of control (TNNI3K (human)): 100% | kinase still bound, per cent of control (EPHA7 (human)): 97% | kinase still bound, per cent of control (FYN (human)): 100% | kinase still bound, per cent of control (TNK2 (human)): 18% | kinase still bound, per cent of control (PIK3CA (human)): 74% | kinase still bound, per cent of control (ABL2 (human)): 97% | kinase still bound, per cent of control (SIK3 (human)): 100% | kinase still bound, per cent of control (TYRO3 (human)): 100% | kinase still bound, per cent of control (PRKG2 (human)): 74% | kinase still bound, per cent of control (MYLK3 (human)): 100% | kinase still bound, per cent of control (STK17A (human)): 100% | kinase still bound, per cent of control (AKT3 (human)): 100% | kinase still bound, per cent of control (BTK (human)): 100% | kinase still bound, per cent of control (STK11 (human)): 96% | kinase still bound, per cent of control (MAP3K4 (human)): 100% | kinase still bound, per cent of control (PRKX (human)): 99% | kinase still bound, per cent of control [1]: 89% | kinase still bound, per cent of control (CAMK2B (human)): 62% | kinase still bound, per cent of control (MAP3K7 (human)): 98% | kinase still bound, per cent of control (RPS6KB1 (human)): 100% | kinase still bound, per cent of control (STK16 (human)): 62% | kinase still bound, per cent of control (SGK110 (human)): 62% | kinase still bound, per cent of control (ROS1 (human)): 12% | kinase still bound, per cent of control (RIOK3 (human)): 85% | kinase still bound, per cent of control (MYO3B (human)): 83% | kinase still bound, per cent of control (MAPK4 (human)): 100% | kinase still bound, per cent of control (NEK4 (human)): 95% | kinase still bound, per cent of control (PDGFRB (human)): 100% | kinase still bound, per cent of control (PKMYT1 (human)): 80% | kinase still bound, per cent of control (NEK5 (human)): 100% | kinase still bound, per cent of control (MAPK7 (human)): 0.05% | kinase still bound, per cent of control (FES (human)): 84%
